According to article PMC11445358 (Applied Microbiology and Biotechnology, 2024):
Residues, ends and D or L forms follow the SMILES beside them. *: point of attachment. Cbz = O=C(OCc1ccccc1)*

Target: T1, microbial transglutaminase (MTG) (Streptomyces mobaraensis, UniProt P81453)
T1 sequence (P81453 77-407): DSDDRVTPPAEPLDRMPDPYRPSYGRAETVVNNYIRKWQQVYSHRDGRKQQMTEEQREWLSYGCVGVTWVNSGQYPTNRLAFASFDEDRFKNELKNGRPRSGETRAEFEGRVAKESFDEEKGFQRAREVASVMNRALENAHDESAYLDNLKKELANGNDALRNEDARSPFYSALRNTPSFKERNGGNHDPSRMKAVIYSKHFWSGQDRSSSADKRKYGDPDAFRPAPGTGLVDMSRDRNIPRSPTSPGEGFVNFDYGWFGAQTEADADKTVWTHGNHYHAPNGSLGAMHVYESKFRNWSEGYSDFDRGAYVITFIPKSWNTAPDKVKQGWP
Assay: colorimetric hydroxamate assay, absorbance at […] nm
Format: biochemical
Details: 37 °C, 10 min; hydroxamate formation

## NC(=O)CC[C@H](NC(=O)OCc1ccccc1)C(=O)NCC(=O)O [Z-QG, N-carbobenzoxy-L-glutaminylglycine] (Cbz-Gln-Gly-OH)
  specific activity: specific MTG activity was measured with a colorimetric hydroxamate procedure using N-carbobenzoxy-L-glutaminylglycine (Z-QG)
